# Data: patent US20220213092A1, “BICYCLIC PYRAZOLE BRUTON'S TYROSINE KINASE INHIBITORS” (AbbVie Inc., priority 2020, published 2022)
# System: CYP3A4
# Assay: CYP3A4 induction assay (CYP 3A4 mRNA by qPCR in cryopreserved human hepatocytes)
# Assay type: in vitro ADME
# Conditions: 10 μM compound; for CYP3A4 Ind. (%): value in brackets: induction relative to prototypical inducer rifampicin = 100%
# Method: CYP induction was evaluated in vitro by determining the expression levels of CYP 3A4 mRNA using the qPCR (quantitative polymerase chain reaction) assay. On day one, cryopreserved human hepatocytes were thawed in prewarmed (37° C.) thawing medium (cryopreserved hepatocyte recovery medium, Gibco™ CM 7000; Thermo Fisher Scientific), centrifuged (1000 g for 10 minutes) and resuspended in plating medium (Gibco™ CM3000—Williams Medium E supplemented with hepatocytes plating supplement pak-serum containing; Thermo Fisher Scientific). Cells were counted by trypan blue exclusion using a hemocytometer and adjusted to a cell density of […]. Thereafter, […] of cell suspension was aliquoted per well in a 96-well plate, resulting in 60,000 cells/well. Plates were shaken in the north-south and east-west direction during plating. Plated cells were incubated at 37° C./5% CO2 in a humidified cell culture incubator for 4-6 hours. During this time, incubation medium (Gibco™ CM4000, cell maintenance supplement pack; Thermo Fisher Scientific) was mixed with Gibco™ Geltrex™ (Thermo Fischer Scientific) at the appropriate Geltrex™ protein concentration. Following recovery, medium was removed from cells and replaced with freshly prepared incubation medium. Cells were incubated overnight in a cell culture incubator (37° C./5% CO2).
# The next day the incubation medium was prepared by combining the hepatocyte maintenance supplement pack with Williams medium E. The medium was warmed to 37° C. 1000× dimethyl sulfoxide compound stocks were prepared to the desired concentrations. 10 mM compound stocks in dimethyl sulfoxide were diluted (1 μL to 1 mL CM4000; final concentration=10 μM). Overlay medium was aspirated and […] dose solution added to the desired labeled 96 well plate. Cells were returned to the humidified incubator overnight (37° C./5% CO2).
# On day 3, incubation medium was warmed to 37° C., and the same process for compound preparation repeated as in day 2, i.e. 1000× dimethyl sulfoxide compound stocks were prepared to the desired concentration, diluted (1:1000) in warm incubation medium, and this freshly prepared medium was used to replace treatment medium. Cells were returned to the humidified incubator (37° C./5% CO2) overnight.
# On day 4, RNA isolation was performed. Prior to RNA isolation, cell viability was assessed using presto blue reagent. 10× dilution of PrestoBlue™ reagent (Thermo Fisher Scientific) was prepared by mixing 1.4 mL PrestoBlue™ with 12.6 mL incubation medium. Medium was aspirated from cells, and 100 μL of cell viability medium (10× dilution of PrestoBlue™ reagent) added and incubated for 17 minutes. Cell viability was determined by measuring absorbance using a microplate reader (Spark® 10M Tecan Life Sciences). After this measurement, media was aspirated using a multichannel aspirator and a glass pipet to completely aspirate from each well. Plates were stored or immediately used for mRNA isolation. All surfaces were cleaned using RNase away. 2× Lysis buffer was well mixed after incubation at ambient temperature. Fresh lysis buffer was prepared by mixing 0.125 μL of 0.5 mM DTT with 4.875 μL 2× lysis buffer. 1× lysis buffer containing DTT was then prepared by adding 5 μL dilution buffer to the 2× lysis buffer and mixing thoroughly. Thereafter, cell lysates were prepared by adding 1× lysis buffer to each sample well (96-well plate). Samples were incubated for 3-6 minutes at ambient temperature while shaking (350-400 rpm) to lyse the cells. Cells were scrapped with tips, and cell lysate (80 μL) was transferred to each well of the mRNA Catcher PLUS™ plate (Thermo Fisher Scientific). mRNA Catcher PLUS™ plate containing samples was covered with adhesive plastic film plate cover and incubated at ambient temperature for 45-60 minutes for RNA hybridization.
# After hybridization, lysate was aspirated from the cells. […]
CYP3A4 Ind. (%),CYP3A4 Ind. fold (CYP3A4 mRNA fold change vs vehicle) [fold],Structure (SMILES)
125,–,"C=CC(=O)N1CCC([C@@H]2CCNc3c(C(N)=O)c(-c4ccc(Oc5ccccc5)cc4)nn32)CC1 [Compound A, reference compound]"
−1.3,0.9,"C=CC(=O)N1CCN([C@@H]2CCNc3c2nn(-c2ccc(Oc4ccccc4)cc2)c3C(N)=O)CC1 [Example 6, (7R)-2-(4-phenoxyphenyl)-7-[4-(prop-2-enoyl)piperazin-1-yl]-4,5,6,7-tetrahydro-2H-pyrazolo[4,3-b]pyridine-3-carboxamide]"
